Assay results: US6103888A, “Mammalian cationic proteins having lipopolysaccharide binding and anti-coagulant activity” (priority 1999, dated 2000)
Where “and” joins values, the source holds several entries; their conditions need not be identical. Equal entries are not always repeated.

What was measured:
[1] = test system: RAW 264.7 cells; test: LPS- or IFNγ-induced reactive nitrogen intermediate (RNI) production, Griess nitrite assay; type: cell-based, murine
Procedure: (§1) From the sequence of the CAP18 cDNA, it was apparent that the putative N-terminal peptide of CAP18 was in fact an internal fragment of the CAP18 protein. We therefore tried to reconfirm the original protein sequence. Neutrophil-derived heparin bound cationic proteins were prepared as described above and applied to a C18 reverse phase HPLC (FIG. 1). We sequenced the major peaks. Peaks at fractions 14.5 and 15.2 correspond to defensins MCP1 and MCP2 (Territo et al. (1989) J. Clin. Invest. 84:2017-2019), respectively. Fraction 25.8 is macrophage related protein 14 (MRP14) (Odink et al. (1987) Nature 330:80-82). The fraction at 20.3 minutes corresponds to a fragment of CAP18 of approximately 4-5 kD. […] The murine macrophage cell line RAW 264.7 (obtained from ATCC) and thioglycollate-elicited murine peritoneal exudate cells are used to produce RNI. Cells are cultured at 1×10^6 /ml. in RPMI-1640 +2.5% FCS in 24 well plates in the presence or absence of different concentrations of LPS or murine rlFNγ. After 24 hr. incubation at 37° C., the cell free supernatant is collected and tested for the presence of RNI. Accumulation of nitrite in the medium is measured by a calorimetric assay based on the Griess reaction (Green et al. (1982) Anal. Biochem. 126:11) using sodium nitrite as standards. Sample (50 μl) is mixed with 50 μl of Griess reagent (1% sulfanilamide, 0.1% naphthalene diamine dihydrochloride, 2.5% H3 PO4) and after 10 min. at room temperature absorbance is read at 570 nm.

[2] = test system: thioglycolate elicited murine peritoneal exudate cells; test: RNI generation by thioglycolate elicited peritoneal exudate cells; type: cell-based; conditions: for RNI: RNIP 50 nm
Procedure: as §1

[3] = test system: human monocytes; test: TNF release from LPS and IFNγ stimulated monocytes; type: cell-based
[4] = test system: human mononuclear cells; test: LPS-induced tissue factor by human mononuclear cells (clotting assay); type: cell-based
Procedure: Human mononuclear cells were separated from citrated peripheral blood by centrifugation over Sodium-metrizoate-Ficoll (lymphocyte Separation Medium, Japan Antibody Institute, Gumma). The resulting mixed mononuclear cell suspension was washed 3 times with RPMI 1640 media. Cell suspension (1×10^6 /ml) was stimulated with LPS for 16 to 18 hr.
Veronal buffered saline (VBS) was added to the cell pellet, lysed by 3 cycles of freeze/thaw and sonicated for 10 sec with a hand-held sonicator microbe (Handy Sonic, model UR-20P, Tomy Seiko LTD, Tokyo). Tissue factor activity was tested in modified unactivated partial thromboplastin time (7). One tenth ml of cell lysate (1×10^6 /ml) was preincubated with mouse plasma at 37° C. for 3 min. Then 0.1 ml of 25 mM-CaCl2 which contains phospholipid was added to the mixture and clotting time was measured using a fibrometer (Bio Quest Division, Becton Dickinson, Cokeysville, USA). A standard curve obtained from serial two-fold dilutions of rabbit brain thromboplastic (Simplastin, Ono Pharmaceutical Co.) was used to transpose tissue factor activity into arbitrary tissue factor units (1 μg/ml) suspension of rabbit brain was assigned a value of 1,000 units).
The mean tissue factor units+standard error was determined from three to four samples. Student's t test for unpair data was used to determine the statistically significant differences. A two-tailed P value of <0.05 was considered significant. […]

[5] = test system: thioglycollate-stimulated murine peritoneal macrophages; test: LPS-induced tissue factor generation by macrophages (clotting assay); type: cell-based
Procedure: Tissue factor assay. Salmonella minnesota smooth LPS was incubated with each peptide (1 μg/ml) for 5 min., then the mixture was added to peritoneal murine macrophages obtained 4 days after thioglycollate stimulation. Cells were cultured for 6 hours prior to assay of tissue factor by clotting assay.
Various concentrations of Salmonella minnesota smooth LPS were incubated with each peptide (197 (RNIP), 36-1, 32-1, and 50-2) at 37° C. for 5 minutes prior to mixing with thioglycollate-stimulated murine peritoneal macrophages. Production of tissue factor after 6 hr. was measured by clotting assay. […] In the absence of LPS no tissue factor is synthesized by these cells.

[6] = test system: Human plasma; test: Partial thromboplastin time (PTT); type: biochemical; conditions: dose dependent
Procedure: Partial thromboplastin time (PTT). Human plasma (100 μl) was incubated with each peptide (100 μl) at 37° C. for 3 min., then 100 μl of CaCl2 containing phospholipid was added and clotting time was measured.

[7] = target: T1, factor Xa (Homo sapiens, UniProt P00742); test: Direct Xa inhibition using Xa substrate S2222; type: biochemical; conditions: concentrations over 10 μg/ml
T1 construct: purchased Sigma Chemical Co., St. Louis, Mo
T1 sequence (P00742 235-488 limits assumed): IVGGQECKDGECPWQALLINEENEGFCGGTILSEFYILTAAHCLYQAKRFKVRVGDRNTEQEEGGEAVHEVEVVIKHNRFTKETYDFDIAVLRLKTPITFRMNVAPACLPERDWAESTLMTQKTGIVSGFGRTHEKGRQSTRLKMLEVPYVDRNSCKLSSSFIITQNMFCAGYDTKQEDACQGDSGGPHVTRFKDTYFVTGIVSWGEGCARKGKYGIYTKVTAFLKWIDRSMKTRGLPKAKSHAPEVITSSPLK
T1 sequence (P00742 41-179 limits assumed): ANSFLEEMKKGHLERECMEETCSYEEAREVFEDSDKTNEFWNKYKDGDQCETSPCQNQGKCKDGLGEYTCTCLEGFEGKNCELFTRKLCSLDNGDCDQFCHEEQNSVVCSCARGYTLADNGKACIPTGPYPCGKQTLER
Text: Clotting method: Human plasma (Ortho plasma control, Ortho Diagnostic Co.). ATPP reagent(Organo-technika, Tokyo, Japan). Standard tissue factor, rabbit brain thromboplastin (Simplastin, ONO Pharmaceutical, Tokyo, Japan). Purified human factor VII, factor X, factor Xa (Sigma Chemical Co., St. Louis, Mo.). Russell Viper venom (RVV) and Echis Carinatus venom (ECV, Sigma Co.).
Synthetic chromogenic substrate method: Substrate for factor Xa, S2222 (Kabi, Bz-Ile-Glu-Arg-pNA) was used. Substrate for factor II (prothrombin), Boc-Val-Pro-Arg-pNA (Sigma Chemical Co.) was used.

[8] = target: T2, factor X (Homo sapiens, UniProt P00742); test: Factor X activation by tissue factor and factor VII, synthetic substrate S-2222; type: biochemical; conditions: synthetic substrate; listed as 197
T2 construct: purchased Sigma Chemical Co., St. Louis, Mo
T2 sequence (P00742 183-488): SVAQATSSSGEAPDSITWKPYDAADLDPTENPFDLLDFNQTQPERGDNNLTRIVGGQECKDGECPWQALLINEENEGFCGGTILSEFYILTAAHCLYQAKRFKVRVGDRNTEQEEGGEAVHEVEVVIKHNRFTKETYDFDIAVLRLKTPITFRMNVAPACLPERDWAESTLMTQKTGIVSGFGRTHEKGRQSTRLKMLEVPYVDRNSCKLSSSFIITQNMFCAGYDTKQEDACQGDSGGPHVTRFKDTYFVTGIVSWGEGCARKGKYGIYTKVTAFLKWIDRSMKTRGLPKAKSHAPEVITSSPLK
T2 sequence (P00742 41-179): as the sequence (P00742 41-179 limits assumed) above
Procedure: Factor Xa activity using synthetic substrate. A reaction mixture of factor VII (1 unit/ml, 200 μl), factor X (1 unit/ml, 200 μl), tissue factor (2.5 mg/ml, 50 μl), 25 mM-CaCl2 (50 μl) and 50 μl of several concentration of peptide was incubated at 37° C. for 10 min. To 200 Al of the reaction mixture, 60 μl of 4 mM S-2222, a synthetic substrate for factor Xa, and 340 μl of Tris-HCl buffer, pH 8.2, was added and further incubated for 15 min. The reaction was stopped by adding 60 μl of 50% acetic acid, and OD for p-nitroaniline was read at 405 nm.

[9] = test system: E. coli O9:K39 K+ strain; test: Antibacterial CFU assay
[10] = LPS 0.1 μg/ml, peptide HA units: RNIP 2, CAP-18 1, HP-1 4, HP-2 2

Q: “RNIP: rabbit reactive nitrogen inhibitory protein, amino acids 135-171 of SEQ ID NO:4; purified from granulocytes (Tables 1-3) or synthetic (#197) (GLRKRLRKFRNKIKEKLKKIGQKIQGLLPKLAPRTDY)” was tested. Which “concentrations at which peptides are active in the bioassay” value ([1]; day-to-day variation in the bioassay) did it give?
A: The value was 10 to 50 nM.

Q: What about the “inhibition of LPS-induced RNI production (in words)” value ([1]; macrophages / RAW 264.7 cells) of the same substance?
A: Its value is “active”.

Q: And the RNI ([2]; IFNγ 500 U/ml, without RNIP 4.0 ± 0.8)?
A: Its RNI is 1.1 µM.

Q: And the IC50 ([2]; IFNγ stimulated, read-out: IC50 for inhibition of gamma interferon stimulated nitrogen radical release)?
A: Its IC50 is < 0.05 µM.

Q: And the RNI ([2]; LPS + IFNγ 1 ng + 500 U/ml, without RNIP 26 ± 0.6)?
A: Its RNI is 14 ± 0.7 µM.

Q: And the TNF ([3]; Human IFNγ (100 U), CAP (1:1), stimulus alone 2.0)?
A: Its TNF is 0.27 ng/mL.

Q: What about the TNF ([3]; Human IFNγ (100 U), CAP (1:10), stimulus alone 2.0) of the same substance?
A: The TNF was 0.35 ng/mL.

Q: What about the TNF ([3]; Human IFNγ (100 U), CAP (1:100), stimulus alone 2.0) of the same substance?
A: Its TNF is 0.35 ng/mL.

Q: And the TNF ([3]; LPS (10 ng/ml), CAP (1:1), stimulus alone 1.0)?
A: The TNF was 0.12 ng/mL.

Q: What about the TNF ([3]; LPS (10 ng/ml), CAP (1:10), stimulus alone 1.0) of the same substance?
A: Its TNF is 0.34 ng/mL.

Q: And the TNF ([3]; LPS (10 ng/ml), CAP (1:100), stimulus alone 1.0)?
A: The TNF was 0.23 ng/mL.

Q: What about the “Inhibition (%)” value [4, 10] of the same substance?
A: The value was 51% and 41%.

Q: And the “Tissue Factor Units, value in parentheses (ratio to unstimulated control)” value [4, 10]?
A: Its value is 9.0.

Q: And the “Δ Units (%)” value ([4]; LPS 0.1 μg/ml, relative to LPS alone (100), 960 min)?
A: The value was 49% and 59%.

Q: And the “Tissue Factor Units, value in parentheses (ratio to unstimulated control)” value ([4]; no LPS, peptide alone)?
A: Its value is 1.3.

Q: What about the “Tissue factor units” value ([4]; no LPS, peptide alone) of the same substance?
A: The value was 636 ± 141 Units ×10^3 /3.6 × 10^4 cells.

Q: What about the “Δ Units” value ([4]; no LPS, peptide alone) of the same substance?
A: The value was 144 Units.

Q: What about the “inhibition of LPS-induced tissue factor generation, peptide added after LPS” value ([5]; added as late as 3 hours after the LPS stimulus) of the same substance?
A: Its value is “Significant inhibition”.

Q: What about the “inhibition of LPS induced tissue factor (in words)” value ([5]; peptides 1 μg/ml incubated with S. minnesota smooth LPS 5 minutes, 6 hr) of the same substance?
A: The value was “inhibition”.

Q: And the “inhibition of the partial thromboplastin time (PTT), in words” value [6]?
A: The value was “inhibited”.

Q: What about the “direct Xa inhibition (in words)” value [7] of the same substance?
A: Its value is “No evidence of direct Xa inhibition”.

Q: And the “IC50, Tissue factor VII, X to Xa” value [8]?
A: The value was 0.3 to 0.7 µg/mL.

Q: And the “IC50, anti-bacterial activity” value [9]?
A: Its value is 0.14 µg/mL.

Q: And the IC50 ([9]; read-out: IC50, anti-bacterial activity)?
A: Its IC50 is 0.02 µM.
